# “Also recorded” adds a separate entry of the source.
# How the values were obtained:
# [1] = tested on: femoral arteries of aged WT and KI mice; experiment: Endothelium-independent relaxations induced by apo-sGC activator, wire myograph; conditions: BAY 60-2770 0.01-10 μM
# Procedure: (§1) To test which component of NO-cGMP signalling was most likely affected, we tested an uncoupling effect on endothelial NO synthase or an oxidative damage of the NO receptor, soluble guanylate cyclase yielding oxidized or heme-free apo-sGC [51, 52]. To test for sGC/apo-sGC, relaxing responses to the NO donor compound and sGC stimulator, PAPA/NO (0.01-10 μM), and to the aposGC activator, BAY 60-2770 (0.01-10 μM), were analyzed.
# (§2) After mice were sacrificed, thoracic aortae, femoral and saphenous arteries were dissected free from perivascular adipose tissue and mounted in a wire myograph (DMT, Aarhus, DK). The organ chamber was filled with Krebs-Ringer bicarbonate-buffered salt solution (KRB) that was continuously aerated with 95% O2/5% CO2 and maintained at 37° C. […] Arterial contractile and relaxing responses were recorded at lumen diameters corresponding to a distending pressure of 100 mmHg in thoracic aorta and femoral artery and at 90% of this diameter in the resistance-sized saphenous artery. […] Consequently, wall stiffness can be determined equally by recording 1) changes in tension in response to imposed changes in radius (wire myography) or 2) changes in radius in response to changes in transmural pressure (pressure myography). […] The wall tension of the vessel segment was continuously recorded with LabChart Pro (AD Instruments, Oxford, UK).
# [2] = tested on: femoral arteries of aged NOX5 KI mice; experiment: Acetylcholine (Ach)-induced relaxation of isolated femoral arteries, wire myograph; conditions: for Reversal of impaired Ach-induced relaxation by antioxidant: femoral arteries of aged KI mice contracted with 10 μM phenylephrine, Ach 10 μM
# Excerpt: (§3) To test the effect of endothelial NOX5 on endothelium-dependent, NO-cGMP mediated relaxation, arterial segments were pre-contracted by either depolarization (K^+), α1-adrenergic activation (phenylephrine), or endothelin-1; vaso-relaxation was then induced by acetylcholine (Ach) the classical endothelium-derived relaxing factor stimulant. […] When comparing ours to previous studies, the Ach-induced relaxation of saphenous arteries of both mice groups seemed attenuated. There are two possible explanations for this discrepancy. First, we have used very old mice and other studies used young mice.
# After mice were sacrificed, thoracic aortae, femoral and saphenous arteries were dissected free from perivascular adipose tissue and mounted in a wire myograph (DMT, Aarhus, DK). The organ chamber was filled with Krebs-Ringer bicarbonate-buffered salt solution (KRB) that was continuously aerated with 95% O2/5% CO2 and maintained at 37° C. Passive stretch procedure was performed to mimic the physiologically relevant internal lumen diameter as previously described. Arterial contractile and relaxing responses were recorded at lumen diameters corresponding to a distending pressure of 100 mmHg in thoracic aorta and femoral artery and at 90% of this diameter in the resistance-sized saphenous artery. […] The diameter tension relationships were constructed according to the law of Laplace for a cylindrical tube: P=T/R (with P for transmural pressure, T for wall tension and R for the lumen radius of the tube). Consequently, wall stiffness can be determined equally by recording 1) changes in tension in response to imposed changes in radius (wire myography) or 2) changes in radius in response to changes in transmural pressure (pressure myography). Here we used the former approach because it has a higher throughput than the latter. Stress-strain relationships and even better “incremental elastic (Young's) modulus” (which require additional recording of wall thickness) only come into play to discriminate between structural and material property contributions to changes in arterial stiffness. Part of the isolated thoracic aorta was studied in the absence and part in the continuous presence of 10 μM indomethacin to inhibit production of prostaglandins that can act as endothelium-derived vasoactive factors in this vessel. The vessels were tested for their contractile response to 40 mM K^+, concentration-response curves of phenylephrine (0.01 to 100 μM) and endothelin-1 (1-256 nM) followed by acetylcholine (Ach) (0.01 to 100 μM), PAPA/NO (0.01-10 μM) or Bay60-2770 (0.01-10 μM)-induced relaxations. The wall tension of the vessel segment was continuously recorded with LabChart Pro (AD Instruments, Oxford, UK).
# [3] = tested on: thoracic aorta of aged KI and WT mice; experiment: Ach-induced relaxation of isolated thoracic aorta, wire myograph; conditions: thoracic aorta contracted with 258 nM endothelin-1, 100 μM L-NAME
# Excerpt: as §3
# as §2, with “DK).” for “DK). The organ chamber was filled with Krebs-Ringer bicarbonate-buffered salt solution (KRB) that was continuously aerated with 95% O2/5% CO2 and maintained at 37° C.”
# [4] = tested on: femoral arteries of aged NOX5 KI mice; experiment: Measurement of superoxide formation: DHE staining; conditions: pre-treatment with 500 μM L-NAME for 30 min at 37° C.
# Procedure: Superoxide was measured in femoral arteries using the florescence dye dihydroethidium (DHE) (Thermo Scientific Technology, The Netherlands). Frozen femoral arteries cryo-sections were fixated in 4% paraformaldehyde (PFA) in PBS and then incubated with 2 μM DHE for 30 minutes at 37° C. After three washing steps with PBS, slices were incubated with DAPI (Sigma-Aldrich, The Netherlands) […] for 10 min. Sections were washed in PBS and then mounted using a Dako Fluorescence Mounting Medium ([…], Agilent Technologies). Immunofluorescent signals were viewed using a Leica DM13000 B fluorescence microscope. Some arteries were pre-treated with 500 μM L-NAME for 30 min at 37° C. before performing the DHE staining.
# [5] = tested on: saphenous arteries of aged KI and WT mice; experiment: Ach-induced relaxation of isolated saphenous arteries, wire myograph; conditions: saphenous arteries contracted with endothelin-1; 100 μM L-NAME; both types of mice
# Excerpt: as §3
# as §2, with “DK).” for “DK). The organ chamber was filled with Krebs-Ringer bicarbonate-buffered salt solution (KRB) that was continuously aerated with 95% O2/5% CO2 and maintained at 37° C.”
# [6] = tested on: femoral arteries, saphenous arteries and thoracic aortae of aged WT and KI mice; experiment: Endothelium-independent relaxations induced by NO donor, wire myograph; conditions: PAPA/NO 0.01-10 μM, thoracic aortae with/without indomethacin
# Procedure: as §1, §2
# hypertensive patients = conditions: cited from earlier work
# [7] = tested on: thoracic aorta of the KI and WT mice; experiment: Agonist-induced contractile responses, wire myograph; conditions: 10 μM indomethacin
# Excerpt: We next tested whether, alternatively, chronic changes in the underlying arterial smooth muscle layer could have contributed to the observed blood pressure and vasomotor phenotypes in aged NOX5 KI mice. Contractile responses to K^+ and the sensitivity and maximal responsiveness to phenylephrine and endothelin-1 did, however, not differ between KI and WT mice in all arterial segments (FIGS. 10 A-I).
# as §2
# [8] = tested on: elevated blood pressure induced by NOS uncoupling; conditions: preclinical, refs [85, 86]; cited from earlier work
smiles,measurement,setting,value
O=C(O)CCCCN(CCc1cc(F)ccc1OCc1ccc(-c2ccc(C(F)(F)F)cc2)cc1)Cc1ccc(C(=O)O)cc1 [BAY 60-2770],"Relaxing response, WT vs KI mice",[1],Neither the PAPA/NO (FIGS. 13 A-C) nor the BAY 60-2770 response (FIG. 11 D) differed
same,"Relaxing response, WT vs KI mice",[1]; listed as Bay60-2770,did not differ
COC(=O)[C@@H](N)CCCNC(=N)N[N+](=O)[O-] [L-NAME],Reversal of the relaxing effects of Ach,"[2]; femoral artery contracted with 258 nM endothelin-1, 100 μM L-NAME, KI and WT mice",reversed
same,Reversal of the relaxing effects of Ach,[3],reversed
same,"Superoxide formation (DHE staining), increase in KI vs WT",[4],this increase was inhibited
same,Reversal of the relaxing effects of Ach,[5],did not modify the relaxing effects of Ach
CC(=O)N[C@@H](CS)C(=O)O [N-acetylcysteine],Reversal of impaired Ach-induced relaxation by antioxidant,[2]; 10 μM N-acetylcysteine,"not reversed; also recorded: Neither 10 μM N-acetylcysteine nor 100 μM tempol, however, were effective"
CCCN(CCCN)/[N+]([O-])=N/O [PAPA/NO],"Relaxing response, WT vs KI mice",[6],Neither the PAPA/NO (FIGS. 13 A-C) nor the BAY 60-2770 response (FIG. 11 D) differed
same,"Relaxing response, WT vs KI mice",[6]; listed as PAPA NO,did not differ
Nc1nc2ncc(CNc3ccc(C(=O)N[C@@H](CCC(=O)O)C(=O)O)cc3)nc2c(=O)[nH]1 [folic acid],Effect on elevated blood pressure,"hypertensive patients; clinical, by improving endothelial function, refs [88, 89]",clinically effective to reduce elevated blood pressure
same,Risk of cardiovascular and cerebrovascular events,"hypertensive patients; hypertensive patients, alone or in combination with anti-hypertensives, refs [90-92]",reduces the risk of cardiovascular and cerebrovascular events
COc1ccc2c(c1)c(CC(=O)O)c(C)n2C(=O)c1ccc(Cl)cc1 [indomethacin],"Blunting of agonist-induced contractile responses, KI vs WT mice",[7],similar
C[C@H](O)C(=O)C1=Nc2c(nc(N)[nH]c2=O)NC1 [sepiapterin],Ach-induced relaxation after pre-treatment,"[2]; femoral arteries of aged KI mice pre-contracted with phenylephrine, sepiapterin 100 μM",improved relaxation in KI; also recorded: greatly improved and became indistinguishable from those in WT
same,Effect on elevated blood pressure,[8],lower elevated blood pressure
CC1(C)CC(O)CC(C)(C)N1[O] [tempol],Reversal of impaired Ach-induced relaxation by antioxidant,[2]; 100 μM tempol,"not reversed; also recorded: Neither 10 μM N-acetylcysteine nor 100 μM tempol, however, were effective"

# — patent US20230228764A1, “METHOD FOR THE DIAGNOSIS AND TREATMENT OF ESSENTIAL PRIMARY HYPERTENSION” (Universiteit Maastricht, priority 2020, published 2023)
